The text below walks through data of patent US11375718B2, “Use of prodigiosin in resisting potyvirus” (priority 2020, dated 2022).

Residues, ends and D or L forms follow the SMILES beside them. *: point of attachment. Cbz = O=C(OCc1ccccc1)*

Assay [1] relates to Hsp70 protein. Kind of assay: Western blot of Hsp70 protein in MG-132-treated plants induced by prodigiosin S3. In kind it is in vivo, Nicotiana benthamiana. As to the method: In order to further analyze the role of ubiquitination modification in the antiviral mechanism of prodigiosin S3, we used MG-132 to treat Nicotiana benthamiana in advance. After 2 h, 0.05 μg/L prodigiosin was applied on the tobacco leaf surface uniformly according to 15 L/mu. After 30 minutes, TMV and PVY viruses were inoculated. The samples of 1 d, 2 d and 3 d after virus inoculation were collected for Western Blot analysis.

Assay [2] deals with 26S proteasome complex. The conditions noted are these: read-out: IC50 (proteasome inhibitor); cited from earlier work.
Assay [3] relates to PVY. Kind of assay: Induced resistance of tobacco to PVY after leaf application of prodigiosin. In kind it is in vivo, Nicotiana tabacum cv. NC89. The conditions noted are these: infiltration treatment. As to the method:
(§1) The plant material used in this experiment was Nicotiana tabacum cv. NC89, reproduced by our laboratory and cultivated in a greenhouse. Experimental plant culture conditions included: illumination 16 h, temperature 25±1° C., illumination intensity 2000 lux and relative humidity 60%; and dark duration 8 h, temperature 25±1° C. and relative humidity 60%. The nutrient substrate was produced by the Wode nutrient soil processing plant in Shouguang City, Shandong Province, and no additional fertilization was needed during plant growth. The sources of TMV and PVY were preserved by the Plant Protection Research Center of the Institute of Tobacco Research of CAAC (Chinese Academy of Agricultural Sciences), and were propagated and preserved on Nicotiana tabacum cv. NC89 grown in the greenhouse. The prodigiosin S3 was isolated and purified from Serratia marcescens fermentation broth by Plant Protection Research Center of the Institute of Tobacco Research of CAAC.

Assay [4] in a line: Quantitative proteomics and ubiquitination omics of prodigiosin-treated tobacco leaves. As to conditions: treatment group vs control group, p<0.05. It counts as in vivo, Nicotiana benthamiana. The text has this:
In order to further understand the mechanism of systemic resistance of a plant induced by prodigiosin, the prodigiosin treated Nicotiana benthamiana was used as a target material, the optimal reaction time point of prodigiosin against PVY was selected, and the quantitative proteomics and ubiquitinated nonstandard quantitative proteomics in tobacco leaves were studied by organically combining a series of advanced technologies such as non-standard quantitative technology, high performance liquid chromatography (HPLC) fractionation technology, ubiquitinated peptide enrichment technology and quantitative proteomics technology based on mass spectrometry.
Extraction of protein. The leaf sample was taken from −80° C., put in a mortar precooled with liquid nitrogen, fed with liquid nitrogen, and fully ground to powder; 4 times the volume of powdered lysis buffer (8 M urea, 1% TritonX-100, 10 mM DTT, 1% protease inhibitor and 50 μM PR-619) was added for ultrasonic lysis; followed by 10 min of centrifugation (4° C., 20000 g), the supernatant was carefully aspirated off, and trichloroacetic acid was added to a final concentration of 20%; the mixture was left at 4° C. for 2 h; and centrifuged (4° C., 20000 g) for 3 min. The supernatant was discharged, and the precipitate was washed with precooled acetone for three times; the precipitate was re-dissolved (8 M urea) and the protein concentration was determined.
Proteolysis. DTT was added to the protein solution to a final concentration of 5 mM and was reduced at 56° C. for 30 min. Iodoacetamide was then added and incubated for 15 min at room temperature away from light. Pancreatin was added based on a mass ratio of pancreatin:protein=1:50 and enzymolysis was performed at 37° C. overnight. Pancreatin was added again based on a mass ratio of pancreatin:protein=1:100 and enzymolysis was continued for 4 h.
HPLC Fractionation. The enzymatic solution was fractionated by high pH reverse phase HPLC on an Agilent 300 Extend C18 (5 μm particle size, 4.6 mm internal diameter, 250 mm length) column. The operation was as follows: a peptide fragment grading gradient was 8%-32% acetonitrile, the pH was 9; 60 components were separated in 60 min, then the components were combined into 4 components, and the combined components were subjected to lyophilization for subsequent operations.
HPLC-MS Analysis. The lyophilized fractions were analyzed by HPLC-MS: dissolved by a mobile phase A phase (0.1% (v/v) formic acid in water) and separated using EASY-nLC 1000 ultra high performance liquid phase system. […]
Database Search. […] Differential genes and proteins were analyzed by GO enrichment, and KEGG pathway.

Assay [5] deals with TMV. Kind of assay: Induced resistance of tobacco to TMV after leaf application of prodigiosin. In kind it is in vivo, Nicotiana tabacum cv. NC89. As to conditions: infiltration treatment. As to the method: as §1
[6] abbreviates: 2031 sites on 1110 proteins identified.

In the case of `CC(C)C[C@@H](C=O)NC(=O)[C@H](CC(C)C)NC(=O)[C@H](CC(C)C)NC(=O)OCc1ccccc1` [MG-132] (Cbz-Leu-Leu-Leu-aldehyde), the “content of Hsp70 protein” value in assay [1] (MG-132-treated samples induced by prodigiosin S3) is on record as “increases significantly”. Moreover, in assay [1] (MG-132 in advance, after 2 h 0.05 μg/L prodigiosin at 15 L/mu, inoculated after 30 minutes, PVY virus 1 d, vs control group), the “accumulation of Hsp70 protein” value is recorded as “significantly increased”. Also, the IC50 in assay [2] was 100 nM.

As for `CCCCCC1=C/C(=C/c2[nH]c(-c3ccc[nH]3)cc2OC)N=C1C` [prodigiosin], the “induced resistance to PVY” value in assay [3] is 100%. In assay [4] (setting [6]), the “number of ubiquitination sites with down-regulated modification level” value is given as 21 and the “number of ubiquitination sites with up-regulated modification level” value is on record as 33. Moreover, in assay [4] (6122 proteins identified), the “number of proteins with down-regulated expression” value worked out at 186 and the “number of proteins with up-regulated expression” value is listed as 223. Moreover, in assay [5], the “induced resistance to TMV” value is 100%.
